{"source": "patent US20250025525A1", "about": "“OCTAPEPTIDE FOR TOPICAL APPLICATION” (Alastin Skincare, Inc., priority 2022, published 2025)", "key": {"[1]": {"tested_on": "Early Growth Response 3 (EGR3)", "assay": "RNA-Seq gene expression of EGR3 in keratinocytes", "type": "cell-based, Human", "details": "24 hr, Hexapeptide 11 100 μg/ml", "method": "(§1) Cell Lines. Human adult dermal fibroblast and keratinocyte cell lines were treated with 11 different compound treatments (plus DMSO control as treatment #12Primary cells were plated in cell specific media at 5K or 10K cells per cm^2. Cells were plated in 48 well plates (Greiner) in triplicate, one cell line per plate. Media volume was 500 ul per well. Outer two columns of wells were not used. All rows were used. Cells were cultured for 2 days in 37° C. 5% CO2 incubator. After 48 hours all the cell cultures were uniform and appeared healthy, no appreciable number of floating dead cells or evidence of vacuolization of cells that might indicate apoptotic or dying cells.\n(§2) Compounds. Stocks of compounds 1 through 8 on the list below were prepared in PBS. […] This stock was 100× of final concentration. A 20 mg/ml stock of compound 10 (CBD) was prepared in DMSO. No undissolved particulates were observed but the stock solution was slightly cloudy, not completely clear. […]\n(§3) RNA Lysate preparation. […] All samples were shipped frozen on dry ice for RNA extraction, library construction and sequencing to 25M paired end 100 bp reads per sample.\n(§4) RNA-Seq. All the RNA samples were shipped frozen on dry ice for RNA extraction, library construction and sequencing to 25M paired end 100 bp reads per sample. Differentially expressed genes were identified and pathway enrichment was assessed using the Reactome Pathway."}, "Hyaluronidase 2 (HYAL2)": {"tested_on": "Hyaluronidase 2 (HYAL2)", "assay": "RNA-Seq gene expression of HYAL2 in keratinocytes", "type": "cell-based, Human", "details": "24 hr, 100 μg/ml", "method": "as §1, §2, §3, §4"}, "[2]": {"tested_on": "Hyaluronic Acid Synthase 2 (HAS2)", "assay": "RNA-Seq gene expression of HAS2 in keratinocytes", "type": "cell-based, Human", "details": "24 hr, Hexapeptide 11 100 μg/ml", "method": "as §1, §2, §3, §4"}, "[3]": {"tested_on": "dermal and epidermal hyaluronic acid levels", "details": "ex vivo human skin model; cited from earlier work"}, "[4]": {"tested_on": "Hyaluronic Acid Synthase 2 (HAS2)", "assay": "RNA-Seq gene expression of HAS2 in dermal fibroblasts", "type": "cell-based, Human", "details": "24 hr, Octapeptide 100 μg/ml", "method": "as §1, §2, §3, §4"}, "tropoelastin (TE)": {"tested_on": "tropoelastin (TE)", "assay": "Ex vivo human skin tissue, tropoelastin immunofluorescent staining", "details": "once daily for 7 days, 20 μg/ml of each peptide", "method": "(§5) Referring to FIG. 24, human skin tissue was defatted and cut into a diameter of approximately 7 mm and placed in a transwell insert with cell culture media (DMEM/F12 containing […] CaCl2), 2% fetal bovine serum, 50 μM adenine, 0.02 nM tri-iodothyronine, 1% ITS-X (insulin, transferrin, selenium mix), 1% glutagro (a glutamine equivalent), 1% pen/strep, and 1% gentamycin). The medium was changed daily. The human skin tissue samples were equilibrated for 3 days, then treated with the compounds noted in Table 6 once daily for 7 days. After 7 days of treatment, the skin samples were fixed in formalin and embedded in paraffin following industry standard procedures. The resulting blocks were prepared and sectioned for immunofluorescent staining.\n(§6) Antibodies directed to tropoelastin (TE) (available from Elastin, Owensville, MO) and antibodies against microfibrillar-associated protein 4 (MFAP4) (available from ThermoFisher Waltham, MA) were used to detect the production of new elastin in the treated cells. The appropriate fluorescent secondary antibodies were used for detection by fluorescence microscopy. Images were obtained and analyzed using ImageJ software.\n(§7) Data was obtained from a minimum of three donor skin samples and replicates or triplicates were performed for each compound treated."}, "dermal fibroblasts": {"tested_on": "dermal fibroblasts", "assay": "HA production and size assessment by PAGE of fibroblast supernatant", "type": "cell-based, human", "details": "1× and 10× (100 μg/ml and 1000 μg/ml), 72 hr, 4 experiments", "method": "Dermal fibroblasts were cultured in growth medium until near confluence in 6-well plates. When they reached confluence, the growth medium was replaced with serum-free medium for 24 hours. After 72 hr, 100 μl of media was collected from each treatment condition. The media was concentrated in a SpeedVac concentrator to a final volume of ˜10 μl. All 10 μl from each condition, were loaded onto an acrylamide gel (NuPAGE 4-12% Bis-Tris Protein Gel, Invitrogen, Waltham, MA). Sodium Hyaluronate, Research Grade, (HA2M) from Lifecore Biomedical (Chaska, MN) was reconstituted as recommended by the manufacturer and served as a MW reference, representing high MW HA. The gel was run at 200V for 3 hours to separate MW sizes from proteins and ECM components isolated from the supernatants along with the HA2M reference as a comparator. Gel buffer was exchanged with fresh room temperature buffer every 20 minutes to avoid overheating. The gel was stained using Stains-All (Millipore Sigma, Burlington, MA) and destained according to the manufacturer's protocol. […]\nHuman dermal fibroblasts were treated with Octapeptide (1× and 10×; corresponding to 100 μg/ml and 1000 μg/ml respectively) or left untreated. […] The experiment was conducted 4 times and the density of the bands from each supernatant were quantified (arbitrary units (AU)) using ImageJ. […]"}, "[5]": {"tested_on": "microfibrillar-associated protein 4 (MFAP4)", "assay": "Ex vivo human skin tissue, MFAP4 immunofluorescent staining", "details": "once daily for 7 days, 20 μg/ml of each peptide", "method": "as §5, §6, §7"}}, "note": "Where no end group is shown, it is not given here."}
{"compound": "Hexapeptide-11", "values": [{"measurement": "upregulation of EGR3 gene expression relative to the non-treated cells", "setting": "[1]", "result": "about seven"}, {"measurement": "HYAL2 gene expression, fold-change relative to the non-treated cells", "setting": "Hyaluronidase 2 (HYAL2)", "result": "potent downregulation"}, {"measurement": "HAS2 gene expression, fold-change relative to the non-treated cells", "setting": "[2]", "result": "excellent upregulation"}]}
{"compound": "CCCCCCCC(=O)CCc1ccc(O)c(OC)c1", "note": "[Hydroxymethoxyphenyl decanone]", "values": [{"measurement": "stimulation of dermal hyaluronic acid levels versus placebo", "setting": "[3]", "result": 259, "unit": "%"}, {"measurement": "stimulation of epidermal hyaluronic acid levels versus placebo", "setting": "[3]", "result": 198, "unit": "%"}]}
{"compound": "GPHGVREA [octapeptide-45, proprietary peptide designed by R&D at Alastin; octapeptide included in HA Immerse Serum]", "values": [{"measurement": "HAS2 gene expression, fold-change relative to the non-treated cells", "setting": "[4]", "result": "excellent stimulation"}, {"measurement": "TE expression vs untreated skin", "setting": "tropoelastin (TE)", "result": "increases"}, {"measurement": "production of high MW HA (band density, AU)", "setting": "dermal fibroblasts", "result": "dose-responsive increase in the production of high MW HA"}, {"measurement": "MFAP4 expression vs untreated skin", "setting": "[5]", "result": "increases"}, {"measurement": "HYAL2 gene expression, fold-change relative to the non-treated cells", "setting": "Hyaluronidase 2 (HYAL2)", "result": "modest downregulation"}]}
